Measurements: patent US7951751B2, “Synergistic, crop plant-compatible herbicidal compositions comprising herbicides from the group of the benzoylpyrazoles” (Bayer Crop Science AG, priority 2005, dated 2011)

Tests used:
summer wheat = assay: Crop plant compatibility (damage) post-emergence, with and without safener; assay type: in vivo
Protocol: Seeds of monocotyledonous and dicotyledonous weed and crop plants are place into sandy loam in wood fiber pots or in plastic pots, covered with soil and cultivated in a greenhouse, including during the vegetation period outdoors outside of the greenhouse, under good growth conditions. 2-3 weeks after sowing, the test plants are treated at the one- to three-leaf stage. The test compounds, formulated as wettable powders (WP) or liquid (EC) are, in various dosages with a water application rate of 300 I/ha (converted), with added wetting agent (0.2 to 0.3%), sprayed onto the plants and the surface of the soil. 3 to 4 weeks after the treatment of the test plants, the effect of the preparations is rated visually in comparison to untreated controls (herbicidal effect in percent (%): 100% effect=plants have died, 0% effect=like control plants). […]

STEME = assay: Herbicidal post-emergence action, greenhouse pot test, visual rating; assay type: in vivo; details: rated 3 to 4 weeks after treatment
Protocol: Seeds of monocotyledonous and dicotyledonous weed and crop plants are place into sandy loam in wood fiber pots or in plastic pots, covered with soil and cultivated in a greenhouse, including during the vegetation period outdoors outside of the greenhouse, under good growth conditions. 2-3 weeks after sowing, the test plants are treated at the one- to three-leaf stage. The test compounds, formulated as wettable powders (WP) or liquid (EC) are, in various dosages with a water application rate of 300 I/ha (converted), with added wetting agent (0.2 to 0.3%), sprayed onto the plants and the surface of the soil. 3 to 4 weeks after the treatment of the test plants, the effect of the preparations is rated visually in comparison to untreated controls (herbicidal effect in percent (%): 100% effect=plants have died, 0% effect=like control plants).
If it is additionally to be tested as to whether safeners can improve the plant compatibility of test substances in the case of crop plants, the following options are used for applying the safener: • seeds of the crop plants are, before sowing, dressed with the safener substance (the amount of safener is stated in percent, based on the weight of the seed) • before the application of the test substances, the crop plants are sprayed with the safener at a certain application rate per hectare (usually 1 day before the application of the test substances) • the safener is applied together with the test substance as a tank mix (the amount of safener is stated in g/ha or as a ratio, based on the herbicide).
By comparing the effect of the test substances on crop plants without or with safener treatment, it is possible to assess the effect of the safener substance.

For `Cc1nn(C)c(O)c1C(=O)c1ccc(C(F)(F)F)cc1S(C)(=O)=O` [A], the “Damage of summer wheat” value (summer wheat; 300 g of a.i./ha) was 15% and the “Activity against STEME” value (STEME; 37.5 g of a.i./ha, 100% = plants have died) was 50%.

`N#Cc1cc(Br)c(O)c(Br)c1` [Component B1.2, bromoxynil] was tested, and the “Damage of summer wheat” value (summer wheat; 1680 g of a.i./ha) was 25% and the “Activity against STEME” value (STEME; 140 g of a.i./ha) was 70%.

With `O=C(Nc1ccc(F)cc1F)c1cccnc1Oc1cccc(C(F)(F)F)c1` [Component B4.1, diflufenican] the “Activity against STEME” value (STEME; 75 g of a.i./ha) was 70%.

`CCOC(=O)C1=NN(c2ccc(Cl)cc2Cl)C(C)(C(=O)OCC)C1` (stereo not drawn) [Component C1, mefenpyr-diethyl] was tested, and the “Activity against STEME” value (STEME; 9.4 g of a.i./ha) was 0%.
